Key:
[1] = biological target: Farnesyl pyrophosphate synthase (Trypanosoma cruzi); assay: Inhibition of Trypanosoma cruzi farnesyl pyrophosphate synthase
[2] = Binding affinity towards Trypanosoma cruzi farnesyl pyrophosphate synthase (TcFPPS)
[3] = biological target: Farnesyl pyrophosphate synthase (Trypanosoma cruzi); assay: as above
[4] = as above; remark: listed apart in the source

| Structure (SMILES) | IC50 [1] | Ki [2] | Ki [3] | Ki [4] |
| --- | --- | --- | --- | --- |
| CCCC(P(=O)(O)O)P(=O)(O)O [(1-Phosphono-butyl)-phosphonic acid] | 150 µM | 17 µM | – | – |
| CCCCCCC(P(=O)(O)O)P(=O)(O)O [(1-Phosphono-heptyl)-phosphonic acid] | 4.54 µM | – | 0.54 µM | – |
| CCCCCC(P(=O)(O)O)P(=O)(O)O [(1-Phosphono-hexyl)-phosphonic acid] | 5.67 µM | – | – | 0.47 µM |
| CCCCCCCCC(P(=O)(O)O)P(=O)(O)O [(1-Phosphono-nonyl)-phosphonic acid] | 4.25 µM | – | 0.31 µM | – |
| CCCCCCCC(P(=O)(O)O)P(=O)(O)O [(1-Phosphono-octyl)-phosphonic acid] | 19.7 µM | – | 1.88 µM | – |
| CCCCC(P(=O)(O)O)P(=O)(O)O [(1-Phosphono-pentyl)-phosphonic acid] | 5.71 µM | 0.79 µM | – | – |
| CCC(P(=O)(O)O)P(=O)(O)O [(1-Phosphono-propyl)-phosphonic acid] | > 100 µM | – | – | – |

Reference: BindingDB's records for doi:10.1016/s0960-894x(03)00663-2 (Universidad De Buenos Aires, 2003)
